The structures appear in SMILES notation.

Common to all, as to assay: Inhibition of ALDH isoenzymes (NAD(P)H formation at 340 nm, purified recombinant enzyme)
Holding throughout (type): biochemical

In experiment [1] the target is T1, ALDH2 (Homo sapiens, UniProt P05091).
T1 sequence (P05091 18-517): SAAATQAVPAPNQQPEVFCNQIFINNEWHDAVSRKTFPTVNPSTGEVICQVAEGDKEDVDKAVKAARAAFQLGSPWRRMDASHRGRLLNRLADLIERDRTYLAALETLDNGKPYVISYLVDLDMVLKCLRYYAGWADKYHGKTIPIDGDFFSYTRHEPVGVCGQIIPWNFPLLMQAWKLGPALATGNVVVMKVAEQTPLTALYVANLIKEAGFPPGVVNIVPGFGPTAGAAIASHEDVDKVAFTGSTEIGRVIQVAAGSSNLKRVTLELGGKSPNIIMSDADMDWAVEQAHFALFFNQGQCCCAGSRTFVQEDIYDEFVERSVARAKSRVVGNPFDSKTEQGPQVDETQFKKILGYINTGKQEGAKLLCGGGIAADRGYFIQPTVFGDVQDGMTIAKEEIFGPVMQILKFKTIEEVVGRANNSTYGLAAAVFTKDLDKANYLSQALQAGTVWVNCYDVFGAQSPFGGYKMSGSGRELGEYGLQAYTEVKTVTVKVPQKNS
The conditions noted are these: compound at 20 μM; read-out: ALDH2 % Control at 20 μM.

Experiment [2] has as its target T2, ALDH1A2 (Homo sapiens, UniProt O94788).
T2 sequence (O94788 1-518): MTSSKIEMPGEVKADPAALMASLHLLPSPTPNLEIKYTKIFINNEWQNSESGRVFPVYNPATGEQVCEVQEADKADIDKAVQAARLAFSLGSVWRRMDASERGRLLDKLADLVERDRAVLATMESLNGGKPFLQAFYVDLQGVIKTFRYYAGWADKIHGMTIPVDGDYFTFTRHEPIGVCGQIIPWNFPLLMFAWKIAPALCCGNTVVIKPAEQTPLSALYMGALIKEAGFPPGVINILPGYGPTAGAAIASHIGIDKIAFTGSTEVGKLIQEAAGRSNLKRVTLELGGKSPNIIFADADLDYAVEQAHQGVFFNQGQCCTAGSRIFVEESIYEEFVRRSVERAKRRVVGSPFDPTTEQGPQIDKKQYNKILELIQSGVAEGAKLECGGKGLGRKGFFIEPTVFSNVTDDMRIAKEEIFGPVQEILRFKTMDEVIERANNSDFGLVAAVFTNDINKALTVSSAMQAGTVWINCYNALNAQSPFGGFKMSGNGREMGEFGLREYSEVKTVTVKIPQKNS
The conditions noted are these: for remaining activity at 20 µM: compound at 20 μM, read-out: ALDH1A2 % Control at 20 μM; for IC50: 100-200 nM enzyme, 200 μM NAD+, 100 μM propionaldehyde, pH 7.5, 25° C.; for ALDH1A2: compound is a substrate: result in words.

Experiment [3] concerns the target T3, ALDH1A3 (Homo sapiens, UniProt P47895).
T3 sequence (P47895 1-512): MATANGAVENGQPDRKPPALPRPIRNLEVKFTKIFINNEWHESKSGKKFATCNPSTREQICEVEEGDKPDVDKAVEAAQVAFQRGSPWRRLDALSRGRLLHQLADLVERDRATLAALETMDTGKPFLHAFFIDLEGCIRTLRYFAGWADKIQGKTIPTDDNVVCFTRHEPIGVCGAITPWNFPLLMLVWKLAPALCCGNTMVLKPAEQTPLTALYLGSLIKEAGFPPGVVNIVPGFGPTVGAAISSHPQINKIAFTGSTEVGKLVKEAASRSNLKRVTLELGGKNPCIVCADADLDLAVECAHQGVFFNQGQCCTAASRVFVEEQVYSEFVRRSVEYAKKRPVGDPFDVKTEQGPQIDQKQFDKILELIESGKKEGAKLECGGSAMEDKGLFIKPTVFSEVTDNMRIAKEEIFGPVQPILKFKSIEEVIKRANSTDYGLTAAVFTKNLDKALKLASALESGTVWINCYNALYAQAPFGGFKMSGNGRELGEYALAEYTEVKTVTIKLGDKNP
The following applies: for remaining activity at 20 µM: compound at 20 μM, read-out: ALDH1A3 % Control at 20 μM; for IC50: 100-200 nM enzyme, 200 μM NAD+, 100 μM propionaldehyde, pH 7.5, 25° C.

The target in experiment [4] is T4, ALDH1A1 (Homo sapiens, UniProt P00352).
T4 sequence (P00352 1-501): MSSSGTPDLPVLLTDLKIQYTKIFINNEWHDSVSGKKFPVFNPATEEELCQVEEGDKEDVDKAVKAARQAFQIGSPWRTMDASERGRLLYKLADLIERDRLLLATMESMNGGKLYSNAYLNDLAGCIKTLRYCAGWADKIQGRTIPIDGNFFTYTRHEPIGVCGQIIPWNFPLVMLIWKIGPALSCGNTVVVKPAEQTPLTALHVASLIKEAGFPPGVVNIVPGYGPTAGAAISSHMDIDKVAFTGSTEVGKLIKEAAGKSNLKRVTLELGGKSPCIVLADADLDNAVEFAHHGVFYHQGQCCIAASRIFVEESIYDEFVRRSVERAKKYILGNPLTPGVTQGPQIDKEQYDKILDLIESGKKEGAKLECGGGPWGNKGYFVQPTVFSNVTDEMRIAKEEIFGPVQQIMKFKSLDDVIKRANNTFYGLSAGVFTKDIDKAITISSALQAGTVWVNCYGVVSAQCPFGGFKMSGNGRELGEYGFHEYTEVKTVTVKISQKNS
The following applies: for remaining activity at 20 µM: compound at 20 μM, read-out: ALDH1A1 % Control at 20 μM; for IC50: 100-200 nM enzyme, 200 μM NAD+, 100 μM propionaldehyde, pH 7.5, 25° C.; for ALDH1A1: compound is a substrate: result in words in place of IC50.
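Wherever ALDH2 % Control at 20 μM is given: run at 25 °C, started by adding substrate after 2 min preincubation, with 100-200 nM ALDH2, 200 µM NAD+, 100 µM propionaldehyde, 1% DMSO in BES buffer pH 7.5.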

On to `Cn1ncc2c(=O)n(C3CCC3)c(SCc3cccc(F)c3)nc21` [Example 46, 5-cyclobutyl-6-((3-fluorobenzyl)thio)-1-methyl-1H-pyrazolo[3,4-d]pyrimidin-4(5H)-one], for which the remaining activity at 20 µM came out at 96% in experiment [1], 14% in experiment [2], 73% in experiment [3] and 28% in experiment [4].
The matching figures for `Cn1ncc2c(=O)n(-c3ccccc3)c(COCc3cccc(F)c3)nc21` [Example 50, 6-(((3-fluorobenzyl)oxy)methyl)-1-methyl-5-phenyl-1H-pyrazolo[3,4-d]pyrimidin-4(5H)-one]: 101%, 52%, 37% and 15%.
As to `Cn1ncc2c(=O)n(-c3ccccc3)c(SCC(=O)c3ccccc3)nc21` [Example 52, 1-methyl-6-((2-oxo-2-phenylethyl)thio)-5-phenyl-1H-pyrazolo[3,4-d]pyrimidin-4(5H)-one], the remaining activity at 20 µM in experiment [1] is 91%. Also, the IC50 is 130 nM in experiment [2], 95 nM in experiment [3] and 547 nM in experiment [4].
On to `Cn1ncc2c(=O)n(-c3ccccc3)c(SCc3cccc(C#N)c3)nc21` [Example 53, 3-(((1-methyl-4-oxo-5-phenyl-4,5-dihydro-1H-pyrazolo[3,4-d]pyrimidin-6-yl)thio)methyl)benzonitrile], for which the remaining activity at 20 µM is 95% in experiment [1], 30% in experiment [2], 32% in experiment [3] and 24% in experiment [4].
Turning to `COc1cccc(CSc2nc3c(cnn3C)c(=O)n2-c2ccccc2)c1` [Example 54, 6-((3-methoxybenzyl)thio)-1-methyl-5-phenyl-1H-pyrazolo[3,4-d]pyrimidin-4(5H)-one], the remaining activity at 20 µM in experiment [1] was 88%. Also, the IC50 in experiment [2] was determined as 265 nM; in experiment [3], 207 nM; in experiment [4] it was 281 nM.
The matching figures for `Cn1ncc2c(=O)n(-c3ccccc3)c(SCc3ccccc3)nc21` [Example 55, 6-(benzylthio)-1-methyl-5-phenyl-1H-pyrazolo[3,4-d]pyrimidin-4(5H)-one]: 91%, 139 nM, 203 nM and 387 nM.
On to `Cn1ncc2c(=O)n(-c3ccccc3)c(SCc3cccc(C=O)c3)nc21` [Example 58, 3-(((1-methyl-4-oxo-5-phenyl-4,5-dihydro-1H-pyrazolo[3,4-d]pyrimidin-6-yl)thio)methyl)benzaldehyde], for which, in experiment [1], the remaining activity at 20 µM was 102%. In addition, in experiment [2], the IC50 is 3400 nM and the “ALDH1A2: compound is a substrate” value is recorded as “(slow”. The IC50 in experiment [3] was found to be 764 nM. In experiment [4], the “ALDH1A1: compound is a substrate” value is recorded as “substrate”.
In the case of `Cn1ncc2c(=O)n(-c3ccccc3)c(SCc3ccc(C=O)cc3)nc21` [Example 59, 4-(((1-methyl-4-oxo-5-phenyl-4,5-dihydro-1H-pyrazolo[3,4-d]pyrimidin-6-yl)thio)methyl)benzaldehyde], the remaining activity at 20 µM in experiment [1] worked out at 89%. Also, in experiment [2], the “ALDH1A2: compound is a substrate” value is “substrate”. The IC50 in experiment [3] came to 236 nM. Moreover, the “ALDH1A1: compound is a substrate” value in experiment [4] is given as “substrate”.
On to `CC(Sc1nc2c(cnn2C)c(=O)n1-c1ccccc1)c1cccc(F)c1` (stereo not shown) [Example 71, 6-((1-(3-fluorophenyl)ethyl)thio)-1-methyl-5-phenyl-1H-pyrazolo[3,4-d]pyrimidin-4(5H)-one], for which the remaining activity at 20 µM in experiment [1] was 94%; in experiment [2], -8%; in experiment [3], -10%; in experiment [4], -4%.
Take `Cn1ncc2c(=O)n(-c3ccccc3)c(SC3CCCCC3)nc21` [Example 72, 6-(cyclohexylthio)-1-methyl-5-phenyl-1H-pyrazolo[3,4-d]pyrimidin-4(5H)-one]: the remaining activity at 20 µM in experiment [1] stood at 96%; in experiment [2], 34%; in experiment [3], 24%; in experiment [4], 26%.
On to `CC(Sc1nc2c(cnn2C2COC2)c(=O)n1-c1ccccc1)c1ccccc1` (stereo not shown) [Example 73, 1-(oxetan-3-yl)-5-phenyl-6-((1-phenylethyl)thio)-1H-pyrazolo[3,4-d]pyrimidin-4(5H)-one], for which the remaining activity at 20 µM was 95% in experiment [1], 0% in experiment [2], 1% in experiment [3] and 3% in experiment [4].
The matching figures for `CC(Sc1nc2nn(C3COC3)cc2c(=O)n1-c1ccccc1)c1ccccc1` (stereo not shown) [Example 74, 2-(oxetan-3-yl)-5-phenyl-6-((1-phenylethyl)thio)-2H-pyrazolo[3,4-d]pyrimidin-4(5H)-one]: 96%, 0%, 0% and 3%.
For `Cn1ncc2c(=O)n(-c3ccccc3)c(SC3CCCC3=O)nc21` (stereo not shown) [Example 75, 1-methyl-6-((2-oxocyclopentyl)thio)-5-phenyl-1H-pyrazolo[3,4-d]pyrimidin-4(5H)-one], in that order: 95%, 46%, 64% and 23%.
For `Cn1ncc2c(=O)n(-c3ccccc3)c(SC3CCCCC3=O)nc21` (stereo not shown) [Example 76, 1-methyl-6-((2-oxocyclohexyl)thio)-5-phenyl-1H-pyrazolo[3,4-d]pyrimidin-4(5H)-one], the remaining activity at 20 µM came to 94% in experiment [1], 25% in experiment [2], 14% in experiment [3] and 16% in experiment [4].
Regarding `Cn1ncc2c(=O)n(-c3ccccc3)c(SC(C)(C)c3ccccc3)nc21` [Example 77, 1-methyl-5-phenyl-6-((2-phenylpropan-2-yl)thio)-1H-pyrazolo[3,4-d]pyrimidin-4(5H)-one], the remaining activity at 20 µM in experiment [1] is 102%; in experiment [2], 23%; in experiment [3] it was 17%; in experiment [4], 22%.
